Test [1] relates to subclones of RKO colon adenocarcinoma cells (RKOp27 or RKOp21) arrested by Ponasterone A. As to the kind of experiment: Alamar Blue cell viability assay, cell cycle specific mode of action: cells arrested by ectopic p27Kip1 induced by Ponasterone A versus proliferating cells. Conditions: Homo sapiens, RKO p27 induced (arrested) cells, 10 μM Ponasterone A, 72 hours, value = class bound given in Table A, read-out: −logIC50 RKO p27 induced (arrested) (converted). Format: cell-based. How it is done: To determine the cell cycle specific mode of action, subclones of RKO colon adenocarcinoma cells (RKOp27 or RKOp21 as described by Schmidt et al. in Oncogene 19, 2423-2429; 2000) are seeded into 96 well flat bottom plates at a density of 15000 cells per well in a volume of 50 μl per well in DMEM growth medium with 10% FCS containing 10 μM Ponasterone A. 24 hours after seeding the 50 μl each of the compound dilutions in DMEM medium are added into each well of the 96 Well plate. Each compound dilution is tested as quadruplicates. Wells containing untreated control cells are filled with 50 μl DMEM medium containing 1% DMSO. The cells are then incubated with the substances for 72 hours at 37° C. in a humidified athmosphere containing 5% carbon dioxide. To determine the viability of the cells, 10 μl of an Alamar Blue solution (Biosource) are added and the fluorescence was measured at an extinction of 544 nm and an emission of 590 nm. For the calculation of the cell viability the emission value from untreated cells is set as 100% viability and the emission rates of treated cells are set in relation to the values of untreated cells. Viabilities are expressed as % values. Viability is compared of proliferating cells grown in the absence of the inducer Ponasterone A, versus viability of cells arrested by the expression of ectopic p27Kip1 induced by Ponasterone A.
(§1) Representative −log IC50 [mol/l] values for anti-proliferation/cytotoxicity determined in the mentioned assays follow from the following table A, in which the numbers of the compound correspond to the numbers of the examples.

For test [2], the system named is RKO (RKOp27) human colon adenocarcinoma cells. The test is described as follows: Alamar Blue cell viability assay, anti-proliferative/cytotoxic activity on proliferating RKO subclones. Format: cell-based. Conditions: RKOp27, 72 h, RKO p27 uninduced (proliferating) cells, value = class bound given in Table A, read-out: −logIC50 RKO p27 uninduced (proliferating) (converted). How it is done: The anti-proliferative/cytotoxic activity of the compounds described herein, can be tested on subclones of RKO (RKOp27) human colon adenocarcinoma cells (Schmidt et al., Oncogene 19, 2423-2429; 2000) using the Alamar Blue cell viability assay (described in O'Brien et al. Eur J Biochem 267, 5421-5426, 2000). The compounds are dissolved as 20 mM solutions in dimethylsulfoxide (DMSO) and subsequently diluted in semi-logarithmic steps. DMSO dilutions are further diluted 1:100 into Dulbecco's modified Eagle's medium (DMEM) containing 10% fetal calf serum to a final concentration twice as much as the final concentration in the test. RKO subclones are seeded into 96 well flat bottom plates at a density of 5000 cells per well in a volume of 50 μl per well. 24 hours after seeding the 50 μl each of the compound dilutions in DMEM medium are added into each well of the 96 Well plate. Each compound dilution is tested as quadruplicates. Wells containing untreated control cells are filled with 50 μl DMEM medium containing 1% DMSO. The cells are then incubated with the substances for 72 hours at 37° C. in a hunified atmosphere containing 5% carbon dioxide. To determine the viability of the cells, 10 μl of an Alamar Blue solution (Biosource) are added and the fluorescence is measured at an extinction of 544 nm and an emission of 590 nm. For the calculation of the cell viability the emission value from untreated cells is set as 100% viability and the emission rates of treated cells are set in relation to the values of untreated cells. Viabilities are expressed as % values.
The corresponding IC50 values of the compounds for anti-proliferative/cytotoxic activity are determined from the concentration-effect curves.
as §1
(Alamar Blue is a resazurin reagent that responds to reducing activity.)

In the case of `N#Cc1c(NC(=O)/C=C/c2cccnc2)sc2c1CCC(OC(=O)NCc1ccccc1)C2` (stereo not drawn) [Example 2, Benzyl-carbamic acid 3-cyano-2-((E)-3-pyridin-3-yl-allanoylamino)-4,5,6,7-tetrahydro-benzo[b]thiophen-6-yl ester], the IC50 in test [1] was no less than 10 µM; in test [2] it was 501 to 2000 nM.

Regarding `CCNC(=O)OC1CCc2c(sc(NC(=O)/C=C/c3cccnc3)c2C#N)C1` (stereo not drawn) [Example 3, Ethyl-carbamic acid 3-cyano-2-((E)-3-pyridin-3-yl-allanoylamino)-4,5,6,7-tetrahydro-benzo[b]thiophen-6-yl ester], the IC50 in test [1] was no less than 100 µM; in test [2], no more than 501 nM.

`CCOC(=O)OC1CCc2c(sc(NC(=O)/C=C/c3cccnc3)c2C#N)C1` (stereo not drawn) [Example 4, Carbonic acid 3-cyano-2-((E)-3-pyridin-3-yl-allanoylamino)-4,5,6,7-tetrahydro-benzo[b]thiophen-6-yl ester ethyl ester]: the results for the IC50 in test [1] and in test [2] were no less than 100 µM and no more than 501 nM, respectively.

`CCNC(=O)OC1CCc2c(sc(NC(=O)/C=C/c3ccccc3OCC)c2C#N)C1` (stereo not drawn) [Example 5, Ethyl-carbamic acid 3-cyano-2-[(E)-3-(2-ethoxy-phenyl)-allanoylamino]-4,5,6,7-tetrahydro-benzo[b]thiophen-6-yl ester]: the figures for the IC50 in test [1] and in test [2] were no less than 10 µM and no more than 501 nM, respectively.

On to `CCOC(=O)OC1CCc2c(sc(NC(=O)/C=C/c3ccccc3OCC)c2C#N)C1` (stereo not drawn) [Example 6, Carbonic acid 3-cyano-2-[(E)-3-(2-ethoxy-phenyl)-allanoylamino]-4,5,6,7-tetrahydro-benzo[b]thiophen-6-yl ester ethyl ester], for which the IC50 was no less than 100 µM in test [1] and 501 to 2000 nM in test [2].

As for `N#Cc1c(NC(=O)/C=C/c2cccnc2)sc2c1CCC(COC(=O)NCc1ccccc1)C2` (stereo not drawn) [Example 7, Benzyl-carbamic acid 3-cyano-2-((E)-3-pyridin-3-yl-allanoylamino)-4,5,6,7-tetrahydro-benzo[b]thiophen-6-ylmethyl ester], the IC50 in test [1] was no less than 100 µM; in test [2] it was no more than 501 nM.

Turning to `CCOC(=O)OCC1CCc2c(sc(NC(=O)/C=C/c3cccnc3)c2C#N)C1` (stereo not drawn) [Example 8, Carbonic acid 3-cyano-2-((E)-3-pyridin-3-yl-allanoylamino)-4,5,6,7-tetrahydro-benzo[b]thiophen-6-ylmethyl ester ethyl ester], the IC50 in test [1] is no less than 100 µM; in test [2], 501 to 2000 nM.

With `CCNC(=O)OCC1CCc2c(sc(NC(=O)/C=C/c3cccnc3)c2C#N)C1` (stereo not drawn) [Example 9, Ethyl-carbamic acid 3-cyano-2-((E)-3-pyridin-3-yl-allanoylamino)-4,5,6,7-tetrahydro-benzo[b]thiophen-6-ylmethyl ester], the IC50 was no less than 100 µM in test [1] and 501 to 2000 nM in test [2].

Take `CCNC(=O)OC[C@H]1CCc2c(sc(NC(=O)/C=C/c3cccnc3)c2C#N)C1` [Example 9a, (S)-Ethyl-carbamic acid 3-cyano-2-((E)-3-pyridin-3-yl-allanoylamino)-4,5,6,7-tetrahydro-benzo[b]thiophen-6-ylmethyl ester]: the IC50 in test [1] was no less than 100 µM; in test [2], no more than 501 nM.

For `CCNC(=O)OC[C@@H]1CCc2c(sc(NC(=O)/C=C/c3cccnc3)c2C#N)C1` [Example 9b, (R)-Ethyl-carbamic acid 3-cyano-2-((E)-3-pyridin-3-yl-allanoylamino)-4,5,6,7-tetrahydro-benzo[b]thiophen-6-ylmethyl ester], the figures for the IC50 in test [1] and in test [2] were no less than 100 µM and no more than 501 nM, respectively.

With `CCNC(=O)OCC1CCc2c(sc(NC(=O)/C=C/c3ccccc3OCC)c2C#N)C1` (stereo not drawn) [Example 10, Ethyl-carbamic acid 3-cyano-2-[(E)-3-(2-ethoxy-phenyl)-allanoylamino]-4,5,6,7-tetrahydro-benzo[b]thiophen-6-ylmethyl ester], the values for the IC50 in test [1] and in test [2] were no less than 100 µM and no more than 501 nM, respectively.

`CCOc1ccccc1/C=C/C(=O)Nc1sc2c(c1C#N)CCC(OC(=O)OCCOC)C2` (stereo not drawn) [Example 11, Carbonic acid 3-cyano-2-[(E)-3-(2-ethoxy-phenyl)-allanoylamino]-4,5,6,7-tetrahydro-benzo[b]thiophen-6-yl ester 2-methoxy-ethyl ester]: the IC50 in test [1] is no less than 100 µM; in test [2], no more than 501 nM.

Turning to `CCOc1ccccc1/C=C/C(=O)Nc1sc2c(c1C#N)CCC(OC(=O)NCCOC)C2` (stereo not drawn) [Example 12, (2-Methoxy-ethyl)-carbamic acid 3-cyano-2-[(E)-3-(2-ethoxy-phenyl)-allanoylamino]-4,5,6,7-tetrahydro-benzo[b]thiophen-6-yl ester], the IC50 is no less than 50.1 µM in test [1] and no more than 501 nM in test [2].

For the compound `CCOc1ccccc1/C=C/C(=O)Nc1sc2c(c1C#N)CCC(OC(=O)OCCN1CCOCC1)C2` (stereo not drawn) [Example 13, Carbonic acid 3-cyano-2-[(E)-3-(2-ethoxy-phenyl)-allanoylamino]-4,5,6,7-tetrahydro-benzo[b]thiophen-6-yl ester 2-morpholin-4-yl-ethyl ester], the IC50 was no less than 100 µM in test [1] and 501 to 2000 nM in test [2].

Consider `CCOc1ccccc1/C=C/C(=O)Nc1sc2c(c1C#N)CCC(OC(=O)NCc1cccnc1)C2` (stereo not drawn) [Example 14, Pyridin-3-ylmethyl-carbamic acid 3-cyano-2-[(E)-3-(2-ethoxy-phenyl)-allanoylamino]-4,5,6,7-tetrahydro-benzo[b]thiophen-6-yl ester], for which the figures for the IC50 in test [1] and in test [2] were no less than 50.1 µM and 501 to 2000 nM, respectively.

As to `CCOc1ccccc1/C=C/C(=O)Nc1sc2c(c1C#N)CCC(COC(=O)NCc1ccccn1)C2` (stereo not drawn) [Example 15, Pyridin-2-ylmethyl-carbamic acid 3-cyano-2-[(E)-3-(2-ethoxy-phenyl)-allanoylamino]-4,5,6,7-tetrahydro-benzo[b]thiophen-6-ylmethyl ester], the IC50 was no less than 100 µM in test [1] and 501 to 2000 nM in test [2].

`CNC(=O)OCC1CCc2c(sc(NC(=O)/C=C/c3cccnc3)c2C#N)C1` (stereo not drawn) [Example 16, Methyl-carbamic acid 3-cyano-2-((E)-3-pyridin-3-yl-allanoylamino)-4,5,6,7-tetrahydro-benzo[b]thiophen-6-ylmethyl ester]: the figures for the IC50 in test [1] and in test [2] were no less than 100 µM and no more than 501 nM, respectively.

As to `CNC(=O)OC[C@H]1CCc2c(sc(NC(=O)/C=C/c3cccnc3)c2C#N)C1` [Example 16a, (S)-Methyl-carbamic acid 3-cyano-2-((E)-3-pyridin-3-yl-allanoylamino)-4,5,6,7-tetrahydro-benzo[b]thiophen-6-ylmethyl ester], the IC50 in test [1] is no less than 100 µM; in test [2] it was no more than 501 nM.

Turning to `CNC(=O)OC[C@@H]1CCc2c(sc(NC(=O)/C=C/c3cccnc3)c2C#N)C1` [Example 16b, Methyl-carbarnic acid (R)-3-cyano-2-((E)-3-pyridin-3-yl-allanoylamino)-4,5,6,7-tetrahydro-benzo[b]thiophen-6-ylmethyl ester], the IC50 in test [1] was no less than 100 µM; in test [2] it was 501 to 2000 nM.

With `COCCNC(=O)OC1CCc2c(sc(NC(=O)/C=C/c3cccnc3)c2C#N)C1` (stereo not drawn) [Example 18, (2-Methoxy-ethyl)-carbamic acid 3-cyano-2-((E)-3-pyridin-3-yl-allanoylamino)-4,5,6,7-tetrahydro-benzo[b]thiophen-6-yl ester], the results for the IC50 in test [1] and in test [2] were no less than 100 µM and 501 to 2000 nM, respectively.

Consider `N#Cc1c(NC(=O)/C=C/c2cccnc2)sc2c1CCC(COC(=O)NCCc1cccnc1)C2` (stereo not drawn) [Example 19, (2-Pyridin-3-yl-ethyl)-carbamic acid 3-cyano-2-((E)-3-pyridin-3-yl-allanoylamino)-4,5,6,7-tetrahydro-benzo[b]thiophen-6-ylmethyl ester], for which the IC50 in test [1] was no less than 100 µM; in test [2], 501 to 2000 nM.

(Values after patent US20110044938A1 (NYCOMED GMBH, priority 2006, published 2011).)
